Test results from patent US20230219964A1, “ANTIBACTERIAL AND ANTIFUNGAL PLEUROMUTILIN CONJUGATES” (SYDDANSK UNIVERSITET, priority 2020, published 2023).
≈ marks a conversion by molar mass, not a printed value.

Legend:
[1] = system: Multi-resistant Staphylococcus aureus (MRSA) USA300 cells; experiment: MIC in vitro broth micro-dilution assay, MRSA USA300; type: cell-based; conditions: lowest concentration to fully inhibit visible growth (OD600), ATCC strain; for MIC: Staphylococcus aureus, read-out: in vitro susceptibility (MIC) MRSA USA3000
Description: (§1) Bacterial susceptibility was established through an in vitro cell-based broth micro-dilution assay. To produce accurate and reproducible MIC-values, a procedure was used which follows the guidelines set by the Clinical and Laboratory Standards Institute (CLSI, USA) and the European Committee on Antimicrobial Susceptibility Testing (EUCAST). The micro-dilutions were carried out in 96-well plates, according to FIG. 3, wherein column 1 is a growth control, Columns 2 to 11 are dilutions of 1×, 2×, 4×, 8×, 16×, 32×, 64×, 128×, 256×, 512× respectively, and column 12 is a sterile control. To further increase the reliability of each susceptibility test, inoculation involved the use of three independent overnight cultures (ON1-ON3) thus giving rise to […]. Furthermore, each ON was added to two individual dilution rows, giving rise to […]. The standard inoculum was set to ˜5-10^5 colony-forming units (CFU) mL^−1. This was verified by dilution onto agar plates after each overall run.
(§2) The applied procedure was:
(§3) 1.1 MH or BHI agar plates for dilutions were created, 1 plate per overnight (ON) culture and MH or BHI media. 1.2 Day 1: Preparation of ON cultures of the bacterial strain in question, by inoculation of a single colony in 5 mL of MH or BHI media. Then incubation at 37° C. with aeration for approximately 16-20 hours. Biological triplicates were created by inoculation from 3 different colonies per strain.
(§4) 1.3 Day 2: A 96-well plate with the antibiotic/compound in question was prepared as according to FIG. 3: 1.4 In a 15 mL falcon tube, an appropriate volume of a 1000 μg/mL antibiotic/compound DMSO stock was diluted with MH or BHI media such that a 2× concentration and total volume of 10 mL was achieved. 1.5 A multi-channel pipette was used in the following. 1.6 Column 1 was used for growth control, so no antibiotic/compound was added to that column. 1.7 200 μl of 2× concentration of the antibiotic/compound was added to column 2. Technical duplicates were always created, thus 2 columns per ON culture. 1.8 100 μl of MH or BHI media was added to columns 1, 3-11 and 200 μl of MH or BHI media to column 12. 1.9 100 μl was transferred from column 2 to column 3. The same pipetting tips were used to transfer 100 μL from column 3 to 4. This scheme was repeated until column 11 where 100 μl was discarded after re-suspending. Column 12 was used as a sterile control, so no antibiotic/compound was added to that column. Each transferring involved pipetting up and down 5 to 7 times. 1.10 The plates were fully dried for CFU in the 42° C. incubator, 4× dilutions in triplicates per one plate.
(§5) 1.11 The optical density of bacterial cells in the ON culture was measured at wavelength 600 nm (OD600). Then the ON culture was diluted to an OD600=0.1. 1.12 Then the OD600 was re-measured to make certain that it was between 0.08 and 0.13. 1.13 The prepared 0.1 culture of 1.12 was diluted 100× more by transferring of 100 μl thereof, to 10 ml of MH or BHI media (enough for a 96-well plate). 1.14 Then 200 μl of the 100× dilution in 1.13 was transferred to Eppendorf tubes and kept cold until use. 1.15 100 μl of culture with an OD600 on approximately 0.001 was dispensed to each well of columns 1 to 11. 1.16 The plate was closed. Covered with aluminium foil and small holes were created with a 100-200 μL tip.
(§6) 1.17 The 96-well plate was then incubated at 37° C. with agitation and left for 16-hours.
(§7) 1.18 Verification of standard inoculum: The 100× diluted culture of 1.13 was used to create 10^−1 to 10^−4 dilutions in PBS/0.9% saline (100 μl sample to 900 μl PBS, mix well and continue until 10^−4). 1.19 10 μl of the 10^−2, 10^−3 and 10^−4 dilutions in 1.18 were spotted onto very dry MH or BHI plates in triplicates. 1.20 Then incubated overnight at 37° C. 1.21 The plates were examined manually or by using the plate reader.

[2] = system: S. pneumonia cells; experiment: MIC in vitro broth micro-dilution assay, S. pneumonia; type: cell-based, Streptococcus pneumonia; conditions: lowest concentration to fully inhibit visible growth (OD600), clinical isolate; for MIC: Streptococcus pneumoniae, read-out: in vitro susceptibility (MIC) S. Pneumonia
Description: as §1, §2, §3, §4, §5, §6, §7

[3] = system: E. faecalis cells; experiment: MIC in vitro broth micro-dilution assay, E. faecalis; type: cell-based, Enterococcus faecalis; conditions: lowest concentration to fully inhibit visible growth (OD600), clinical isolate; for MIC: Enterococcus faecalis, read-out: in vitro susceptibility (MIC) E. Faecalis
Description: as §1, §2, §3, §4, §5, §6, §7

[4] = system: vancomycin-resistant enterococci (VRE) cells, VRE 5; experiment: MIC in vitro broth micro-dilution assay, VRE 5; type: cell-based; conditions: lowest concentration to fully inhibit visible growth (OD600), clinical isolate, ampicillin, ciprofloxacin, vancomycin and linezolid resistant; for MIC: Enterococcus, VRE, read-out: in vitro susceptibility (MIC) VRE 5
Description: as §1, §2, §3, §4, §5, §6, §7

[5] = system: vancomycin-resistant enterococci (VRE) cells, VRE 1; experiment: MIC in vitro broth micro-dilution assay, VRE 1; type: cell-based; conditions: lowest concentration to fully inhibit visible growth (OD600), clinical isolate, ampicillin, ciprofloxacin and vancomycin resistant; for MIC: Enterococcus, VRE, read-out: in vitro susceptibility (MIC) VRE 1
Description: as §1, §2, §3, §4, §5, §6, §7

Retapamulin [reference compound] was tested. Which “in vitro susceptibility (MIC) MRSA USA3000” value [1] did it give?
The value was 0.25 µg/mL.

What about the “in vitro susceptibility (MIC) S. Pneumonia” value [2] of the same molecule?
Its value is 0.12 µg/mL.

And the “in vitro susceptibility (MIC) E. Faecalis” value [3]?
Its value is 0.12 µg/mL.

What about the “in vitro susceptibility (MIC) VRE 5” value [4] of the same molecule?
Its value is 0.03 µg/mL.

What about the “in vitro susceptibility (MIC) VRE 1” value [5] of the same molecule?
The value was 0.03 µg/mL.

How did the MIC [1] turn out when `C=C[C@]1(C)C[C@@H](OC(=O)Cn2cc(-c3ccc(CO)cc3)nn2)[C@]2(C)[C@H](C)CC[C@]3(CCC(=O)[C@H]32)[C@@H](C)[C@@H]1O` [C4, 22-[4-(4-(hydroxymethyl)phenyl)-1H-1,2,3-triazol-1-yl]-22-deoxypleuromutilin] was run?
The MIC was 0.25 µg/mL (≈ 0.467 µM).

What about the MIC [2] of the same molecule?
Its MIC is 4 µg/mL (≈ 7.47 µM).

And the MIC [3]?
The MIC was 2 µg/mL (≈ 3.73 µM).

And the MIC [4]?
The MIC was 1 µg/mL (≈ 1.87 µM).

What about the MIC [5] of the same molecule?
The MIC was 1 µg/mL (≈ 1.87 µM).

What does the source list for `C=C[C@]1(C)C[C@@H](OC(=O)Cn2cc(-c3ccc(Cn4cnc5c(N)nc(N)nc54)cc3)nn2)[C@]2(C)[C@H](C)CC[C@]3(CCC(=O)[C@H]32)[C@@H](C)[C@@H]1O` [C6, 22-[4-(4-((2,6-Diamino-9H-purin-9-yl)methyl)phenyl)-1H-1,2,3-triazol-1-yl]-22-deoxypleuromutilin]?
MIC [1]: 0.06 µg/mL (≈ 0.0898 µM); MIC [2]: 0.25 µg/mL (≈ 0.374 µM); MIC [3]: 0.25 µg/mL (≈ 0.374 µM); MIC [4]: 0.25 µg/mL (≈ 0.374 µM); MIC [5]: 0.25 µg/mL (≈ 0.374 µM)

`C=C[C@]1(C)C[C@@H](OC(=O)Cn2cc(-c3ccc(Cn4cnc5c(N)ncnc54)c(O)c3)nn2)[C@]2(C)[C@H](C)CC[C@]3(CCC(=O)[C@H]32)[C@@H](C)[C@@H]1O` [C9, 22-[4-(4-((6-amino-9H-purin-9-yl)methyl)-3-hydroxyphenyl)-1H-1,2,3-triazol-1-yl]-22-deoxypleuromutilin] was tested. Which MIC [1] did it give?
The MIC was 0.03 µg/mL (≈ 0.0449 µM).

What about the MIC [2] of the same molecule?
The MIC was 0.25 µg/mL (≈ 0.374 µM).

And the MIC [3]?
Its MIC is 0.25 µg/mL (≈ 0.374 µM).

What about the MIC [4] of the same molecule?
Its MIC is 0.25 µg/mL (≈ 0.374 µM).

And the MIC [5]?
The MIC was 0.25 µg/mL (≈ 0.374 µM).

What does the source list for `C=C[C@]1(C)C[C@@H](OC(=O)Cn2cc(-c3ccc(Cn4cnc5c(N6CCNCC6)ncnc54)nc3)nn2)[C@]2(C)[C@H](C)CC[C@]3(CCC(=O)[C@H]32)[C@@H](C)[C@@H]1O` [C10, 22-[4-(6-((6-(piperazin-1-yl)-9H-purin-9-yl)methyl)pyridin-3-yl)-1H-1,2,3-triazol-1-yl]-22-deoxypleuromutilin]?
MIC [1]: 0.12 to 0.25 µg/mL (≈ 0.166 to 0.346 µM); MIC [2]: 0.03 µg/mL (≈ 0.0415 µM); MIC [3]: 0.03 µg/mL (≈ 0.0415 µM); MIC [4]: 0.12 µg/mL (≈ 0.166 µM); MIC [5]: 0.03 µg/mL (≈ 0.0415 µM)

With `C=C[C@]1(C)C[C@@H](OC(=O)Cn2cc(-c3cc(C#N)ccc3O)nn2)[C@]2(C)[C@H](C)CC[C@]3(CCC(=O)[C@H]32)[C@@H](C)[C@@H]1O` [C19, 22-[4-(5-cyano-2-hydroxyphenyl)-1H-1,2,3-triazol-1-yl]-22-deoxypleuromutilin] as the molecule, how does the MIC [1] read?
Its MIC is 0.25 µg/mL (≈ 0.457 µM).

What about the MIC [2] of the same molecule?
Its MIC is 4 µg/mL (≈ 7.32 µM).

What about the MIC [3] of the same molecule?
The MIC was 2 µg/mL (≈ 3.66 µM).

What about the MIC [4] of the same molecule?
The MIC was 1 µg/mL (≈ 1.83 µM).

And the MIC [5]?
Its MIC is 1 µg/mL (≈ 1.83 µM).

How did the MIC [1] turn out when `C=C[C@]1(C)C[C@@H](OC(=O)Cn2cc(-c3ccc(Cn4cnc5c(N6CCNCC6)ncnc54)cc3)nn2)[C@]2(C)[C@H](C)CC[C@]3(CCC(=O)[C@H]32)[C@@H](C)[C@@H]1O` [C11, 22-[4-(4-((6-(piperazin-1-yl)-9H-purin-9-yl)methyl)phenyl)-1H-1,2,3-triazol-1-yl]-22-deoxypleuromutilin] was run?
The MIC was 0.25 µg/mL (≈ 0.346 µM).

And the MIC [2]?
Its MIC is 0.12 µg/mL (≈ 0.166 µM).

What about the MIC [3] of the same molecule?
Its MIC is 0.12 µg/mL (≈ 0.166 µM).

What about the MIC [4] of the same molecule?
The MIC was 0.12 µg/mL (≈ 0.166 µM).

And the MIC [5]?
The MIC was 0.06 µg/mL (≈ 0.0831 µM).

What does the source list for `C=C[C@]1(C)C[C@@H](OC(=O)Cn2cc(-c3ccc(CN4C(=O)c5ccccc5C4=O)cc3)nn2)[C@]2(C)[C@H](C)CC[C@]3(CCC(=O)[C@H]32)[C@@H](C)[C@@H]1O` [C2, 22-[4-(4-((N-phthalimide)methyl)phenyl)-1H-1,2,3-triazol-1-yl]-22-deoxypleuromutilin]?
MIC [1]: 0.25 µg/mL (≈ 0.376 µM); MIC [2]: 4 µg/mL (≈ 6.02 µM); MIC [3]: 8 µg/mL (≈ 12 µM); MIC [4]: > 8 µg/mL; MIC [5]: > 8 µg/mL
